{"source": "paper PMC2790544", "about": "(Biochemistry, 2009)", "test_system": "Sec(GLP1TM4-5)R", "assay": "cAMP response", "format": "cell-based, human", "conditions": "COS cells, LANCE, basal 2.1±0.5"}
{"smiles": "CC(C)C[C@H](NC(=O)CNC(=O)[C@H](CCC(N)=O)NC(=O)[C@H](CC(C)C)NC(=O)[C@H](CC(C)C)NC(=O)[C@H](CCCNC(=N)N)NC(=O)[C@H](CCC(N)=O)NC(=O)[C@H](CC(C)C)NC(=O)[C@H](CCCNC(=N)N)NC(=O)[C@H](C)NC(=O)CNC(=O)[C@H](CCC(=O)O)NC(=O)[C@H](CCCNC(=N)N)NC(=O)[C@H](CC(C)C)NC(=O)[C@H](CCCNC(=N)N)NC(=O)[C@H](CO)NC(=O)[C@H](CC(C)C)NC(=O)[C@H](CCC(=O)O)NC(=O)[C@H](CO)NC(=O)[C@@H](NC(=O)[C@H](Cc1ccccc1)NC(=O)[C@@H](NC(=O)CNC(=O)[C@H](CC(=O)O)NC(=O)[C@H](CO)NC(=O)[C@@H](N)Cc1c[nH]cn1)[C@@H](C)O)[C@@H](C)O)C(=O)N[C@H](C(N)=O)C(C)C", "note": "[secretin]", "values": [{"measurement": "maximal cAMP level (Emax)", "value": "149±15 picomoles per million cells"}]}
